Results on 3 compounds are retold here after PMC7321404, “Isolation of Isocoumarins and Flavonoids as α-Glucosidase Inhibitors from Agrimonia pilosa L” (Molecules, 2020).

The target in test [1] is T1, α-glucosidase (Saccharomyces cerevisiae, UniProt P53341). The experiment in a line: AGI kinetic analysis (Lineweaver–Burk plots). Format: biochemical. Here is the method:
Four isocoumarins 1–4 and four flavonoids 5–8 were identified from the APE fraction, and AGI kinetic analyses were performed. During the reaction, α-glucosidase (0.76 unit/mL in 100-mmol phosphate buffer [pH 6.9]) activity was inhibited by the compounds (I) in the presence of the substrate (4-mmol p-nitrophenyl-α-D-glucopyranoside in 100-mmol phosphate buffer [pH 6.9]). The inhibition modes (competitive, uncompetitive, non-competitive, or mixed) of isocoumarins 1–4 and flavonoids 5–8 were examined using nonlinear regression Michaelis–Menten enzyme kinetics. The Lineweaver–Burk plot methods were used to determine kinetic parameters at increasing substrate and compound concentrations, and the parameters were calculated using a nonlinear regression program (Sigma Plot; SPCC Inc., Chicago, IL, USA). The obtained results represent three independent experiments.

The target in test [2] is T1, α-glucosidase. Particulars: has been reported; cited from earlier work.

Read-outs that look alike come from different tables or passages of the source.

T1 sequence (P53341 whole entry): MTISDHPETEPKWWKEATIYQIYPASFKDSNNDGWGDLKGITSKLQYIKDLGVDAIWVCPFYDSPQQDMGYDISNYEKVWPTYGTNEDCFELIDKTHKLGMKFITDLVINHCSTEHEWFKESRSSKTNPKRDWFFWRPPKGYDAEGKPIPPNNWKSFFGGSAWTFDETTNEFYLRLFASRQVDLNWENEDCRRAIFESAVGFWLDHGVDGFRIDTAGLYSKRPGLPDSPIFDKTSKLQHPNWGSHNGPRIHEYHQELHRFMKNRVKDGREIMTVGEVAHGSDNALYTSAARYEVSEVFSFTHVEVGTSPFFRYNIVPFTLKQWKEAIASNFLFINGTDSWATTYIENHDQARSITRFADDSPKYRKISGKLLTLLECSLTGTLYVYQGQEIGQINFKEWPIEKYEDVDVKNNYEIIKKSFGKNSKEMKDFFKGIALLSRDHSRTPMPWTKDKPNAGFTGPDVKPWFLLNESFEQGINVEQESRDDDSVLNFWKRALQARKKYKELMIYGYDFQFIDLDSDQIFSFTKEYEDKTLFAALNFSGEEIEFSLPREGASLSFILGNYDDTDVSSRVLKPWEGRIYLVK

For `COc1ccc(CCC2Cc3cc(O)cc(O)c3C(=O)O2)cc1` (stereo not drawn) [Compound 1, agrimonolide], the “Inhibition Mode” value in test [1] is “Non-competitive”.
Still for that read-out and setting: the same measure for `O=C1OC(CCc2ccc(O)cc2)Cc2cc(O)cc(O)c21` (stereo not drawn) [Compound 3, desmethylagrimonolide]: “Non-competitive”.
Consider `O=c1c(O)c(-c2ccc(O)c(O)c2)oc2cc(O)cc(O)c12` [Compound 6, quercetin], for which, in test [2], the “Inhibition Mode” value is recorded as “competitive”.
